Assay results taken from US6737383B1, “Herbicidal oxadiazolidines” (priority 1999, dated 2004).

How the values were obtained:
[1] = tested on: bedstraw; test: Test B pre/postemergence bedstraw; assay type: in vivo, Galium aparine
Method in brief: (§1)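 Herbicidal effect was estimated by eye on a ten-point control scale after plants spent twelve to sixteen days in a greenhouse following soil or foliar treatment. Foliar sprays targeted plants at one to four leaves; all doses were formulated in a non-phytotoxic solvent with surfactant.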

[2] = tested on: blackgrass; test: Test B pre/postemergence blackgrass; assay type: in vivo, Alopecurus myosuroides
Method in brief: as §1

[3] = tested on: surinam grass; test: Test B pre/postemergence surinam grass; assay type: in vivo, Brachiaria decumbens
Method in brief: as §1

[4] = tested on: cocklebur; test: Test B pre/postemergence cocklebur; assay type: in vivo, Xanthium strumarium
Method in brief: as §1

[5] = tested on: corn; test: Test B pre/postemergence corn; assay type: in vivo, Zea mays
Method in brief: as §1

[6] = tested on: crabgrass; test: Test B pre/postemergence crabgrass; assay type: in vivo, Digitaria sanguinalis
Method in brief: as §1

[7] = tested on: giant foxtail; test: Test B pre/postemergence giant foxtail; assay type: in vivo, Setaria faberii
Method in brief: as §1

[8] = tested on: morningglory; test: Test B pre/postemergence morningglory; assay type: in vivo, Ipomoea hederacea
Method in brief: as §1

[9] = tested on: pigweed; test: Test B pre/postemergence pigweed; assay type: in vivo, Amaranthus retroflexus
Method in brief: as §1

[10] = tested on: rape; test: Test B pre/postemergence rape; assay type: in vivo, Brassica napus
Method in brief: as §1

[11] = tested on: soybean; test: Test B pre/postemergence soybean; assay type: in vivo, Glycine max
Method in brief: as §1

[12] = tested on: sugar beet; test: Test B pre/postemergence sugar beet; assay type: in vivo, Beta vulgaris
Method in brief: as §1

[13] = tested on: velvetleaf; test: Test B pre/postemergence velvetleaf; assay type: in vivo, Abutilon theophrasti
Method in brief: as §1

[14] = tested on: wheat; test: Test B pre/postemergence wheat; assay type: in vivo, Triticum aestivum
Method in brief: as §1

[15] = tested on: wild oat; test: Test B pre/postemergence wild oat; assay type: in vivo, Avena fatua
Method in brief: as §1

[16] = tested on: purple nutsedge; test: Test B pre/postemergence purple nutsedge; assay type: in vivo, Cyperus rotundus
Method in brief: as §1

[17] = Postemergence, Rate 125 g/ha, scale 0 to 10, 0 is no effect, 10 is complete control
[18] = Postemergence, Rate 500 g/ha, scale 0 to 10, 0 is no effect, 10 is complete control
[19] = Preemergence, Rate 62 g/ha, scale of 0 to 10 where 0 is no effect and 10 is complete control
[20] = Preemergence, Rate 125 g/ha, scale 0 to 10, 0 is no effect, 10 is complete control
[21] = Preemergence, Rate 250 g/ha, scale 0 to 10, 0 is no effect, 10 is complete control
[22] = Preemergence, Rate 500 g/ha, scale 0 to 10, 0 is no effect, 10 is complete control
[23] = Postemergence, Rate 62 g/ha, scale of 0 to 10, 0 is no effect, 10 is complete control
[24] = Postemergence, Rate 250 g/ha, scale 0 to 10
[25] = Preemergence, Rate 500 g/ha, scale of 0 to 10 where 0 is no effect and 10 is complete control

CCOCn1c(=O)on(C(=O)N(c2ccc(F)cc2F)C(C)C)c1=O [Compound 504]
0: B. signalgrass plant response rating [3, 23] | Plant response rating, Cocklebur [4, 19] | Cocklebur plant response rating [4, 20] | Cocklebur plant response rating [4, 21] | Cocklebur plant response rating [4, 25] | Corn plant response rating [5, 23] | Plant response rating, Corn [5, 19] | Plant response rating, Morningglory [8, 19] | Morningglory plant response rating [8, 20] | Plant response rating, Soybean [11, 19] | Soybean plant response rating [11, 20] | Wheat plant response rating [14, 23] | Wild oats plant response rating [15, 23] | Nutsedge plant response rating [16, 23] | Nutsedge plant response rating [16, 17] | Nutsedge plant response rating [16, 20]
10: Blackgrass plant response rating [2, 21] | Blackgrass plant response rating [2, 25] | B. signalgrass plant response rating [3, 20] | B. signalgrass plant response rating [3, 21] | B. signalgrass plant response rating [3, 22] | Plant response rating, Crabgrass [6, 18] | Crabgrass plant response rating [6, 25] | Giant foxtail plant response rating [7, 25] | Plant response rating, Redroot pigweed [9, 19] | Redroot pigweed plant response rating [9, 20] | Redroot pigweed plant response rating [9, 25] | Rape plant response rating [10, 20] | Rape plant response rating [10, 25] | Velvetleaf plant response rating [13, 25] | Wild oats plant response rating [15, 25]
5: Bedstraw plant response rating [1, 20] | Corn plant response rating [5, 20] | Plant response rating, Rape [10, 19] | Soybean plant response rating [11, 25] | Sugarbeets plant response rating [12, 23] | Velvetleaf plant response rating [13, 20]
8: Bedstraw plant response rating [1, 17] | Bedstraw plant response rating [1, 21] | Bedstraw plant response rating [1, 22] | Plant response rating, Blackgrass [2, 18] | Blackgrass plant response rating [2, 20] | B. signalgrass plant response rating ([3]; Postemergence, Rate 250 g/ha, scale 0 to 10, 0 no effect, 10 complete control) | Crabgrass plant response rating [6, 23] | Crabgrass plant response rating [6, 17] | Giant foxtail plant response rating [7, 23] | Redroot pigweed plant response rating [9, 17] | Plant response rating, Rape [10, 18] | Wheat plant response rating [14, 25] | Wild oats plant response rating [15, 20] | Nutsedge plant response rating [16, 25]
1: Rape plant response rating [10, 23] | Velvetleaf plant response rating [13, 23] | Plant response rating, Velvetleaf [13, 19]
9: Plant response rating, Bedstraw [1, 18] | Plant response rating, B. signalgrass [3, 18] | Crabgrass plant response rating [6, 24] | Giant foxtail plant response rating [7, 17] | Plant response rating, Giant foxtail [7, 18] | Plant response rating, Giant foxtail [7, 19] | Giant foxtail plant response rating [7, 20] | Plant response rating, Redroot pigweed [9, 18] | Plant response rating, Sugarbeets [12, 18] | Sugarbeets plant response rating [12, 25]
4: Morningglory plant response rating [8, 23] | Morningglory plant response rating [8, 17] | Morningglory plant response rating [8, 25] | Rape plant response rating [10, 17] | Plant response rating, Sugarbeets [12, 19] | Velvetleaf plant response rating [13, 17]
7: Blackgrass plant response rating [2, 17] | Blackgrass plant response rating [2, 24] | Plant response rating, B. signalgrass [3, 19] | Redroot pigweed plant response rating [9, 23] | Plant response rating, Soybean [11, 18] | Sugarbeets plant response rating [12, 17] | Plant response rating, Velvetleaf [13, 18] | Plant response rating, Wild oats [15, 18]
3: B. signalgrass plant response rating [3, 17] | Cocklebur plant response rating [4, 17] | Soybean plant response rating [11, 23] | Wheat plant response rating [14, 17] | Plant response rating, Nutsedge [16, 18]
6: Blackgrass plant response rating [2, 23] | Plant response rating, Blackgrass [2, 19] | Cocklebur plant response rating [4, 24] | Plant response rating, Cocklebur [4, 18] | Plant response rating, Corn [5, 18] | Corn plant response rating [5, 25] | Plant response rating, Crabgrass [6, 19] | Crabgrass plant response rating [6, 20] | Plant response rating, Morningglory [8, 18] | Soybean plant response rating [11, 17] | Sugarbeets plant response rating [12, 20] | Plant response rating, Wheat [14, 18] | Wheat plant response rating [14, 20] | Wild oats plant response rating [15, 17] | Plant response rating, Wild oats [15, 19]
2: Plant response rating, Bedstraw [1, 19] | Cocklebur plant response rating [4, 23] | Corn plant response rating [5, 17] | Corn plant response rating [5, 24] | Plant response rating, Wheat [14, 19] | Plant response rating, Nutsedge [16, 19]
